We go through 4 compounds from PMC4440778, “Structure-Activity Relationship and Mode of Action of a Frog Secreted Antibacterial Peptide B1CTcu5 Using Synthetically and Modularly Modified or Deleted (SMMD) Peptides” (PLoS ONE, 2015).

One series relates to S. aureus ATCC 9542. Particulars: ATCC 9542, 24 h.
Series [1] concerns V. cholerae (clinical isolates). Particulars: 24 h.
Procedure: (§2) Bacterial cultures were grown in Luria Bertani broth (Hi-media) by overnight incubation at 37°C with constant shaking. Microbial cultures having 10^6 CFU/ml were made from OD 0.6 culture. Respective peptide stock concentration (1mg/ml) were prepared in sterile water and diluted in LB broth to make concentrations ranging from 1–200 μg/ml. Bacterial culture (50 μl) was treated with 50 μl of individual peptide amide solution of various concentrations and incubated for 24 h at 37°C with constant shaking in a 96 well microtitre plate. […] The minimum inhibitory concentration (MIC) was taken as the dose at which 100% of growth inhibition was observed and was calculated from the graph. MIC was calculated from independent experiments performed in triplicate.
A further series has as its system PBMCs. The series is classed as cell-based, human. On the procedure:
Peripheral blood mononuclear cells (PBMCs) were isolated from heparanised blood of healthy individuals. Five milliliter of blood was diluted with PBS (pH 7.4), and layered above 5 ml of histopaque and centrifuged at 1200 rpm for 30 min at room temperature. The upper layer was discarded, and the interphase containing PBMCs were carefully withdrawn and washed with PBS. It was centrifuged at 1500 rpm at room temperature for 10 min, the pellets were resuspended in RPMI medium and the cells were counted.
(§1) Cytotoxicity of the peptides against human embryonic kidney (HEK) cells, skin cancer cells (A431) and PBMCs were evaluated by 3-[4, 5-dimethylthiazol-2-yl]-2, 5-diphenyl tetrazolium bromide (MTT) assay. Peptide solution prepared in less than 0.2% DMSO (10–100 μg/ml) was treated with initially seeded 10,000 cells per well for HEK and A431 cells. To assess peptide cytotoxicity in PBMCs, MTT assay was performed by adding different concentrations of the respective peptides to 96 well plate containing 40,000 PBMCs per well, in triplicate. The conversion of MTT into […] was determined by measuring the absorbance at 570 nm.

The subject of series [2] is human embryonic kidney (HEK) cells. Type of series: cell-based. On the procedure:
as §1

For the next series, the system named is P. aeruginosa ATCC 27853. To be noted: ATCC 27853, 24 h.
For the next series, the system named is B. subtilis MTCC 14416. Particulars: MTCC 14416, 24 h.
A further series deals with B. coagulans ATCC 7050. Particulars: ATCC 7050, 24 h.
For the next series, the system named is E. coli MG 1655. To be noted: MG 1655, 24 h.
The subject of another series is skin cancer cells (A431). Type of series: cell-based, human. On the procedure: as §1

In brackets after ≈: the same amount, converted by molar mass. Where a SMILES comes first, the peptide text is derived from it. Bridges are numbered along the chain shown (N, C = ends).

Procedure for B. coagulans ATCC 7050: as §2
Procedure for B. subtilis MTCC 14416: as §2
Procedure for E. coli MG 1655: as §2
Procedure for P. aeruginosa ATCC 27853: as §2
Procedure for S. aureus ATCC 9542: as §2

Turning to `CC[C@H](C)[C@@H]1NC(=O)[C@H](CCCCN)NC(=O)[C@@H](NC(=O)[C@H](CC(C)C)NC(=O)[C@@H](NC(=O)[C@H](CCC(N)=O)NC(=O)[C@@H]2CCCN2C(=O)[C@H](CC(C)C)NC(=O)[C@H](Cc2ccccc2)NC(=O)[C@H](CC(N)=O)NC(=O)[C@H](C)NC(=O)[C@H](C)NC(=O)[C@H](CC(C)C)NC(=O)CNC(=O)[C@H](C)NC(=O)[C@@H](NC(=O)[C@@H](N)CCCCN)[C@@H](C)CC)[C@@H](C)CC)CSSC[C@@H](C(N)=O)NC(=O)[C@H](CCCCN)NC(=O)[C@H](CCCNC(=N)N)NC(=O)[C@H](C)NC1=O` [B1CTcu5K] (H-KIAGLAANFLPQILCKIARKC-NH2; disulfide 15-21), the MIC against S. aureus ATCC 9542 is 12.5 µg/mL (≈ 5.51 µM); in series [1], 25 µg/mL (≈ 11 µM); against P. aeruginosa ATCC 27853 it was more than 100 µg/mL; with B. subtilis MTCC 14416 it was 100 µg/mL (≈ 44.1 µM); against B. coagulans ATCC 7050, 12.5 µg/mL (≈ 5.51 µM); in the series with E. coli MG 1655, 25 µg/mL (≈ 11 µM). The “CC 50” value (with PBMCs; in series [2]; with skin cancer cells (A431)) was more than 100 µg/mL each time.

As to `CC[C@H](C)[C@@H]1NC(=O)[C@H](CCCCN)NC(=O)[C@@H](NC(=O)[C@H](CC(C)C)NC(=O)[C@@H](NC(=O)[C@H](CCC(N)=O)NC(=O)[C@@H]2CCCN2C(=O)[C@H](CC(C)C)NC(=O)[C@H](Cc2ccccc2)NC(=O)[C@H](CC(N)=O)NC(=O)[C@H](C)NC(=O)[C@H](C)NC(=O)[C@H](CC(C)C)NC(=O)CNC(=O)[C@H](C)NC(=O)[C@@H](NC(=O)[C@@H](N)CCCNC(=N)N)[C@@H](C)CC)[C@@H](C)CC)CSSC[C@@H](C(N)=O)NC(=O)[C@H](CCCCN)NC(=O)[C@H](CCCNC(=N)N)NC(=O)[C@H](C)NC1=O` [B1CTcu5R] (H-RIAGLAANFLPQILCKIARKC-NH2; disulfide 15-21), the MIC is 25 µg/mL (≈ 10.9 µM) in the series on S. aureus ATCC 9542; 12.5 µg/mL (≈ 5.44 µM) in series [1]; more than 100 µg/mL in the series on P. aeruginosa ATCC 27853; 50 µg/mL (≈ 21.8 µM) against B. subtilis MTCC 14416; 12.5 µg/mL (≈ 5.44 µM) against B. coagulans ATCC 7050; 25 µg/mL (≈ 10.9 µM) with E. coli MG 1655. Besides, the figures for the “CC 50” value (with PBMCs; in [2]; with skin cancer cells (A431)) were 96.1 ± 1.22 µg/mL (≈ 41.8 µM), more than 100 µg/mL and more than 100 µg/mL, respectively.

In the case of `CC[C@H](C)[C@@H]1NC(=O)[C@H](CCCCN)NC(=O)[C@@H](NC(=O)[C@H](CC(C)C)NC(=O)[C@@H](NC(=O)[C@H](CCC(N)=O)NC(=O)[C@@H]2CCCN2C(=O)[C@H](CC(C)C)NC(=O)[C@H](Cc2ccccc2)NC(=O)[C@H](CC(N)=O)NC(=O)[C@H](C)NC(=O)[C@H](C)NC(=O)[C@H](CC(C)C)NC(=O)CNC(=O)[C@H](C)NC(=O)[C@@H](NC(=O)[C@@H](N)Cc2c[nH]c3ccccc23)[C@@H](C)CC)[C@@H](C)CC)CSSC[C@@H](C(N)=O)NC(=O)[C@H](CCCCN)NC(=O)[C@H](CCCNC(=N)N)NC(=O)[C@H](C)NC1=O` [B1CTcu5W] (H-WIAGLAANFLPQILCKIARKC-NH2; disulfide 15-21), the MIC is 12.5 µg/mL (≈ 5.37 µM) against S. aureus ATCC 9542; 25 µg/mL (≈ 10.7 µM) in series [1]; more than 100 µg/mL in the series with P. aeruginosa ATCC 27853; 50 µg/mL (≈ 21.5 µM) in the series with B. subtilis MTCC 14416; 12.5 µg/mL (≈ 5.37 µM) with B. coagulans ATCC 7050; 100 µg/mL (≈ 43 µM) against E. coli MG 1655. Further, the entries for the “CC 50” value (in the series on PBMCs; in series [2]; with skin cancer cells (A431)) were 74.5 ± 2.44 µg/mL (≈ 32 µM), more than 100 µg/mL and more than 100 µg/mL, respectively.

For the compound `CC[C@H](C)[C@@H]1NC(=O)[C@H](CCCCN)NC(=O)[C@@H](NC(=O)[C@H](CC(C)C)NC(=O)[C@@H](NC(=O)[C@H](CCC(N)=O)NC(=O)[C@@H]2CCCN2C(=O)[C@H](CC(C)C)NC(=O)[C@H](Cc2ccccc2)NC(=O)[C@H](CC(N)=O)NC(=O)[C@H](C)NC(=O)[C@H](C)NC(=O)[C@H](CC(C)C)NC(=O)CNC(=O)[C@H](C)NC(=O)[C@@H](NC(=O)[C@@H](N)CC(C)C)[C@@H](C)CC)[C@@H](C)CC)CSSC[C@@H](C(N)=O)NC(=O)[C@H](CCCCN)NC(=O)[C@H](CCCNC(=N)N)NC(=O)[C@H](C)NC1=O` [Cyclic B1CTcu5] (H-LIAGLAANFLPQILCKIARKC-NH2; disulfide 15-21), the MIC with S. aureus ATCC 9542 was more than 100 µg/mL; in [1], 25 µg/mL (≈ 11.1 µM); with P. aeruginosa ATCC 27853, more than 100 µg/mL; with B. subtilis MTCC 14416, 50 µg/mL (≈ 22.2 µM); with B. coagulans ATCC 7050, 15 µg/mL (≈ 6.66 µM); against E. coli MG 1655 it was 25 µg/mL (≈ 11.1 µM). Besides, the entries for the “CC 50” value (in the series on PBMCs; in series [2]; with skin cancer cells (A431)) were 75.1 ± 1.46 µg/mL (≈ 33.3 µM), more than 100 µg/mL and more than 100 µg/mL, respectively.

By MIC is commonly meant the smallest concentration in the dilution series that meets the test's criterion for growth inhibition. Read a low MIC as greater potency.
